Laboratory results: patent publication US4304781A, “Treatment of ulcers and hypertension” (John Wyeth & Brother Limited, priority 1978, dated 1981)

How the values were obtained:
Format in all cases: in vivo
[1] = system: Female rats rendered hypertensive; test: Antihypertensive activity, Procedure B: deoxycorticosterone acetate hypertensive rats (unilateral nephrectomy); conditions: 50 mg/kg orally
Method: Female rats are rendered hypertensive by unilateral nephrectomy and the s.c. implantation of a pellet containing 30 mg of deoxycorticosterone acetate. The drinking water is replaced by normal saline ad lib for the first four weeks following preparation. Blood pressures stabilise at a hypertensive level after 6 weeks. Systolic pressure is measured indirectly before dosing with a test compound using an E and M pneumatic pulse transducer and a Devices MX2 recorder. Groups of 4 rats are dosed orally with suspensions or solutions of the test compound in 0.5% hydroxypropyl-methyl-cellulose 0.9% saline vehicle. Blood pressures are recorded again at 2, 6 and 24 hours and the results, expressed as a percentage of the pre-dose values compared with those of a similar group of rats receiving vehicle alone.

[2] = system: hypersecretion; test: Anti-secretory activity test (Shay et al); set-up: key to Anti-secretory, % change in Vol.: NS: Not Significant
Method: (§1) Anti-ulcer activity was determined by the stress-induced erosion test of Senay & Levine, Proc. Soc. Exp. Biol. Med., 124, 1221-1223 (1967) and anti-secretory activity by the test of H. Shay, D. Sun and H. Greenstin, Gastroenterology, 1954, 26, 903-913 as exemplified by Beattie et al J. Med. Chem., 20, 714 (1977). […] However, some compounds show activity in tests for anti-hypertensive activity.

[3] = system: stress-induced erosion; test: Stress-induced erosion test (Senay & Levine), anti-ulcer activity
Method: as §1

Structure (SMILES) | Antihypertensive activity (Procedure B) [1] | Anti-secretory, % change in Vol. ([2]; 30 mg/kg) | inhibition in vivo at 10 mg/kg ([3]; 10 mg/kg) [%] | inhibition in vivo at 30 mg/kg ([3]; 30 mg/kg) [%] | inhibition in vivo at 100 mg/kg [3] [%] | change in vivo at 10 mg/kg ([2]; 10 mg/kg, read-out: Anti-secretory, % change in Vol.) [%] | change in vivo at 30 mg/kg ([2]; 30 mg/kg, read-out: Anti-secretory, % change in Vol.) [%]
C[n+]1ccccc1SCC1CCCCC1 [Example 12, 2-(Cyclohexylmethylthio)-1-methylpyridinium bromide] | inactive | NS | 64 | 67 | 87 | – | –
C[n+]1ccccc1SCc1cccc(Cl)c1 [Example 11, 1-Methyl-2-(3-chlorobenzylthio(pyridinium chloride] | inactive | – | – | – | 62 | -42 | -70
